Source: patent US10933056B2, “3-(1H-pyrazol-4-yl)pyridine allosteric modulators of the M4 muscarinic acetylcholine receptor” (Merck Sharp & Dohme Corp., priority 2015, dated 2021)

Molecular target: T1, human M4 muscarinic acetylcholine receptor (Homo sapiens, UniProt P08173)
T1 construct: expressed in transfected cells; host or cells: CHO-K1
T1 sequence (P08173 1-479): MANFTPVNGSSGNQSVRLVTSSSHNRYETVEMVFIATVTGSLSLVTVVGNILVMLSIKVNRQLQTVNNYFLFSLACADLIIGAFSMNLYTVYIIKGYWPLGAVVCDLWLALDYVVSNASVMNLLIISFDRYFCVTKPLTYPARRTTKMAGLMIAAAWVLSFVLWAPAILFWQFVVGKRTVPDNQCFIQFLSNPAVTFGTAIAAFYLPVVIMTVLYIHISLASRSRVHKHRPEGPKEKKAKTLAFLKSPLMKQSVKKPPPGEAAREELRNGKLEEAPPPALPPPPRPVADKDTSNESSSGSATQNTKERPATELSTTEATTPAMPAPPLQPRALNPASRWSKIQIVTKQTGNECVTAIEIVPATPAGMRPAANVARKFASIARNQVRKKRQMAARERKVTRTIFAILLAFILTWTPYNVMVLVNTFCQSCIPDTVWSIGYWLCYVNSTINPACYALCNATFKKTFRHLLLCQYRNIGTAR
Experiment: human FLIPR-based M4 PAM assay (calcium mobilization in CHO-K1 cells with human M4 receptor and Gαqi5)
Assay type: cell-based
Conditions: inflection point of dose response curve, acetylcholine at 20% of maximum response, FLIPR Tetra, read-out: M4 PAM IP
Experimental: (§1) In a typical experiment the M4 muscarinic acetylcholine receptor modulating activity of the compounds of the present invention was determined in accordance with the following experimental method. CHO-K1 cells stably transfected with human M4 receptor and chimeric G-protein Gαqi5 (Coward P, et al., Analytical Biochemistry, 270:242-248 (1999)) are thawed from liquid N2 storage, resuspended in growth medium, plated in black, clear bottom 384 well plates, and incubated 16-20 hours at 37° C., 5% CO2. On the day of assay, growth medium is removed, the cells are washed 2 times with wash buffer, and cells are incubated in dye loading buffer at 37° C., 5% CO2 for ˜1 hour. Following dye loading the cell plates are placed in a FLIPR Tetra instrument and while monitoring dye fluorescence (excitation […]), 10 uL of test substance at increasing concentrations is added, and fluorescence values are recorded for 4 min. Next, 10 uL of acetylcholine is added (final concentration calculated so as to achieve 20% of the maximum acetycholine response), and the fluorescence reading is continued for 3.5 min. In some cases, a third addition of acetylcholine (final concentration calculated to achieve 70% of the maximal acetylcholine response) is performed. The resulting dose response curves are fit to a 4 parameter logistic equation and the final result is determined as the inflection point (IP) of the curve
as §1, with “CHO-K1” for “In a typical experiment the M4 muscarinic acetylcholine receptor modulating activity of the compounds of the present invention was determined in accordance with the following experimental method. CHO-K1”, “Gαqi5” for “Gαqi5 (Coward P, et al., Analytical Biochemistry, 270:242-248 (1999))”, “performed.” for “performed. The resulting dose response curves are fit to a 4 parameter logistic equation and the final result is determined as the inflection point (IP) of the curve”

| SMILES | EC50 [nM] |
| --- | --- |
| CN1Cc2ccc(-c3nc(CO)c(F)cc3-c3cnn(CC4(C)CCCC4)c3)cc2C1=O [Example 41, 6-(5-fluoro-6-(hydroxymethyl)-3-(1-((1-methylcyclopentyl)methyl)-1H-pyrazol-4-yl)pyridin-2-yl)-2-methylisoindolin-1-one] | 64 |
| CN1Cc2ccc(-c3nc(C#N)ccc3-c3cnn(CC4(C)CCCC4)c3F)cc2C1=O [Example 43, 5-(5-fluoro-1-((1-methylcyclopentyl)methyl)-1H-pyrazol-4-yl)-6-(2-methyl-3-oxoisoindolin-5-yl)picolinonitrile] | 20 |
| CC1(Cn2ncc(-c3ccc(C#N)nc3-c3ccc4c(c3)C(=O)NC4)c2F)CCCC1 [Example 43A, 5-(5-fluoro-1-((1-methylcyclopentyl)methyl)-1H-pyrazol-4-yl)-6-(3-oxoisoindolin-5-yl)picolinonitrile] | 26 |
| CC1(Cn2ncc(-c3ccc(C#N)nc3-c3ccc4c(c3)C(=O)N(CC3CC3)C4)c2F)CCCC1 [Example 45, 6-(2-(cyclopropylmethyl)-3-oxoisoindolin-5-yl)-5-(5-fluoro-1-((1-methylcyclopentyl)methyl)-1H-pyrazol-4-yl)picolinonitri1e] | 41 |
| CN1Cc2ccc(-c3nc(C#N)c(F)cc3-c3cnn(CC4(C)CCCC4)c3)cc2C1=O [Example 47, 3-fluoro-6-(2-methyl-3-oxoisoindolin-5-yl)-5-(1-((1-methylcyclopentyl)methyl)-1H-pyrazol-4-yl)picolinonitrile] | 20 |
| CC1(Cn2cc(-c3cc(F)c(C#N)nc3-c3ccc4c(c3)C(=O)N(CC3CC3)C4)cn2)CCCC1 [Example 48, 6-(2-(cyclopropylmethyl)-3-oxoisoindolin-5-yl)-3-fluoro-5-(1-((1-methylcyclopentyl)methyl)-1H-pyrazol-4-yl)picolinonitrile] | 76 |
| CC1(Cn2cc(-c3cc4c(nc3-c3ccc5c(c3)C(=O)N(CCF)C5)CCC4)cn2)CCCC1 [Example 49, 2-(2-fluoroethyl)-6-(3-(1-((1-methylcyclopentyl)methyl)-1H-pyrazol-4-yl)-6,7-dihydro-5H-cyclopenta[b]pyridin-2-yl)isoindolin-1-one] | 32 |
| CN1Cc2ccc(-c3ncc(F)cc3-c3cnn(CC4(C)CCCC4)c3)cc2C1=O [Example 50, 6-(5-fluoro-3-(1-((1-methylcyclopentyl)methyl)-1H-pyrazol-4-yl)pyridin-2-yl)-2-methylisoindolin-1-one] | 38 |
| CC1(Cn2cc(-c3cc4c(nc3-c3ccc5c(c3)C(=O)NC5)CCC4)cn2)CCCC1 [Example 55, 6-(3-(1-((1-methylcyclopentyl)methyl)-1H-pyrazol-4-yl)-6,7-dihydro-5H-cyclopenta[b]pyridin-2-yl)isoindolin-1-one] | 38 |
| CC1(Cn2cc(-c3cc4c(nc3-c3ccc5c(c3)C(=O)N(CCC#N)C5)CCC4)cn2)CCCC1 [Example 56, 3-(6-(3-(1-((1-methylcyclopentyl)methyl)-1H-pyrazol-4-yl)-6,7-dihydro-5H-cyclopenta[b]pyridin-2-yl)-1-oxoisoindolin-2-yl)propanenitrile] | 72 |
| CN1Cc2ccc(-c3nc(F)ccc3-c3cnn(CC4(C)CCCC4)c3F)cc2C1=O [Example 57, 6-(6-fluoro-3-(5-fluoro-1-((1-methylcyclopentyl)methyl)-1H-pyrazol-4-yl)pyridin-2-yl)-2-methylisoindolin-1-one] | 44 |
| CN1C(=O)c2cc(-c3nc(C#N)ccc3-c3cnn(CC4(C)CCCC4)c3)ccc2C1(C)C [Example 60] | 99 |
| CN1Cc2ncc(-c3nc4c(cc3-c3cnn(CC5(C)CCCC5)c3)CCC4)cc2C1=O [Example 61, 6-methyl-3-(3-(1-((1-methylcyclopentyl)methyl)-1H-pyrazol-4-yl)-6,7-dihydro-5H-cyclopenta[b]pyridin-2-yl)-6,7-dihydro-5H-pyrrolo[3,4-b]pyridin-5-one] | 59 |
| Cc1cc(N)c(-c2cnn(CC3(C)CCCC3)c2)c(-c2ccc3c(c2)C(=O)N(C)C3)n1 [Example 62, 6-(4-amino-6-methyl-3-(1-((1-methylcyclopentyl)methyl)-1H-pyrazol-4-yl)pyridin-2-yl)-2-methylisoindolin-1-one] | 293 |

Further lines, results first:

| EC50 [nM] | SMILES |
| --- | --- |
| 58 | CC1(Cn2cc(-c3cc4c(nc3-c3cnc5c(c3)C(=O)NC5)[C@H](F)CC4)cn2)CCCC1 [Example 39A, (R)-3-(7-fluoro-3-(1-((1-methylcyclopentyl)methyl)-1H-pyrazol-4-yl)-6,7-dihydro-5H-cyclopenta[b]pyridin-2-yl)-6,7-dihydro-5H-pyrrolo[3,4-b]pyridin-5-one] |
| 25 | CC1(Cn2cc(-c3cc4c(nc3-c3cnc5c(c3)C(=O)NC5)[C@@H](F)CC4)cn2)CCCC1 [Example 39B, (S)-3-(7-fluoro-3-(1-((1-methylcyclopentyl)methyl)-1H-pyrazol-4-yl)-6,7-dihydro-5H-cyclopenta[b]pyridin-2-yl)-6,7-dihydro-5H-pyrrolo[3,4-b]pyridin-5-one] |
| 49 | Cc1cc(-c2cnn(CC3(C)CCCC3)c2)c(-c2ccc3c(c2)C(=O)NC3)nc1Cl [Example 40, 6-(6-chloro-5-methyl-3-(1-((1-methylcyclopentyl)methyl)-1H-pyrazol-4-yl)pyridin-2-yl)isoindolin-1-one] |
| 37 | CC1(Cn2cc(-c3ccc(C#N)nc3-c3ccc4c(c3)C(=O)N(CCF)C4)cn2)CCCC1 [Example 42, 6-(2-(2-fluoroethyl)-3-oxoisoindolin-5-yl)-5-(1-((1-methylcyclopentyl)methyl)-1H-pyrazol-4-yl)picolinonitrile] |
| 54 | CC1(Cn2ncc(-c3ccc(C#N)nc3-c3ccc4c(c3)C(=O)N(C3CC3)C4)c2F)CCCC1 [Example 44, 6-(2-cyclopropyl-3-oxoisoindolin-5-yl)-5-(5-fluoro-1-((1-methylcyclopentyl)methyl)-1H-pyrazol-4-yl)picolinonitrile] |
| 75 | CN1Cc2ccc(-c3nc(C#N)c(N)cc3-c3cnn(CC4(C)CCCC4)c3)cc2C1=O [Example 51, 3-amino-6-(2-methyl-3-oxoisoindolin-5-yl)-5-(1-((1-methylcyclopentyl)methyl)-1H-pyrazol-4-yl)picolinonitrile] |
| 40 | CN1Cc2ccc(-c3nc(CF)ccc3-c3cnn(CC4(C)CCCC4)c3)cc2C1=O [Example 52, 6-(6-(fluoromethyl)-3-(1-((1-methylcyclopentyl)methyl)-1H-pyrazol-4-yl)pyridin-2-yl)-2-methylisoindolin-1-one] |
| 61 | Cc1cc(-c2cnn(CC3(C)CCCC3)c2)c(-c2ccc3c(c2)C(=O)N(C)C3)nc1F [Example 53, 6-(6-fluoro-5-methyl-3-(1-((1-methylcyclopentyl)methyl)-1H-pyrazol-4-yl)pyridin-2-yl)-2-methylisoindolin-1-one] |
| 8 | CN1Cc2ncc(-c3nc(C#N)ccc3-c3cnn(CC4(C)CCCC4)c3F)cc2C1=O [Example 54, 5-(5-fluoro-1-((1-methylcyclopentyl)methyl)-1H-pyrazol-4-yl)-6-(6-methyl-5-oxo-6,7-dihydro-5H-pyrrolo[3,4-b]pyridin-3-yl)picolinonitrile] |
| 35 | CN1Cc2ncc(-c3nc(CF)ccc3-c3cnn(CC4(C)CCCC4)c3)cc2C1=O [Example 58, 3-(6-(fluoromethyl)-3-(1-((1-methylcyclopentyl)methyl)-1H-pyrazol-4-yl)pyridin-2-yl)-6-methyl-6,7-dihydro-5H-pyrrolo[3,4-b]pyridin-5-one] |
| 14 | CN1Cc2ncc(-c3nc(F)ccc3-c3cnn(CC4(C)CCCC4)c3F)cc2C1=O [Example 59, 3-(6-fluoro-3-(5-fluoro-1-((1-methylcyclopentyl)methyl)-1H-pyrazol-4-yl)pyridin-2-yl)-6-methyl-6,7-dihydro-5H-pyrrolo[3,4-b]pyridin-5-one] |
